Data as given in US12171806B2, “Therapeutic regimens and methods for lowering blood glucose and/or body weight using GLP-1R and GCGR balanced agonists” (priority 2021, dated 2024).

Columns and labels:
[1] = target: T1, glucagon (human, cloned into CHO cells) receptor (Homo sapiens, UniProt P47871); test: cAMP stimulation cellular assay (DiscoveRx LeadHunter), glucagon receptor; format: cell-based; conditions: 0.1% BSA
T1 construct: host or cells: CHO cells

[2] = over 26 weeks; cited from earlier work
[3] = in 6 weeks; cited from earlier work

T1 sequence (P47871 26-477): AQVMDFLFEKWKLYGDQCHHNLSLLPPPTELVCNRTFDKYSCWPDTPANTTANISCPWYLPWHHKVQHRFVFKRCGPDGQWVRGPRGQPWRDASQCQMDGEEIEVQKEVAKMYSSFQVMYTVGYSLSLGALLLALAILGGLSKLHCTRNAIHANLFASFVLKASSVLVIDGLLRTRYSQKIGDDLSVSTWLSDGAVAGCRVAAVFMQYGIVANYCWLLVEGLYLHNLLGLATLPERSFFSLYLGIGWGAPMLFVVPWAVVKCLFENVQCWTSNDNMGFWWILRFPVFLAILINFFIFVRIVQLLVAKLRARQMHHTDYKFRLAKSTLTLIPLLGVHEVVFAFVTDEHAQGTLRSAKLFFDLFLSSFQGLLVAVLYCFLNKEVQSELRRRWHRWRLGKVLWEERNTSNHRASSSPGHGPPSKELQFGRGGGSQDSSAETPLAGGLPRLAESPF

Structure (SMILES) | EC50 [1] [nM] | weight loss [2] [%] | reduction in liver fat content / hepatic fat fraction [3] [%]
CC[C@H](C)[C@H](NC(=O)[C@H](Cc1ccccc1)NC(=O)[C@H](CCC(=O)O)NC(=O)[C@@H]1CCCCNC(=O)CC[C@H](NC(=O)[C@H](CC(=O)O)NC(=O)[C@H](CC(C)C)NC(=O)[C@H](Cc2ccc(O)cc2)NC(=O)[C@H](CCCCN)NC(=O)[C@H](CO)NC(=O)[C@H](Cc2ccc(O)cc2)NC(=O)[C@H](CC(=O)O)NC(=O)[C@H](CO)NC(=O)[C@@H](NC(=O)[C@H](Cc2ccccc2)NC(=O)[C@@H](NC(=O)CNC(=O)[C@H](CCC(N)=O)NC(=O)C(C)(C)NC(=O)[C@@H](N)Cc2c[nH]cn2)[C@@H](C)O)[C@@H](C)O)C(=O)N[C@@H](CCC(N)=O)C(=O)N[C@@H](C)C(=O)N[C@@H](C)C(=O)N1)C(=O)N[C@@H](CCCCNC(=O)[C@H]1O[C@@H](OCCCCCCCCCCCCCCCCCC(=O)O)[C@H](O)[C@@H](O)[C@@H]1O)C(=O)N[C@@H](Cc1c[nH]c2ccccc12)C(=O)N[C@@H](CC(C)C)C(=O)N[C@@H](CC(C)C)C(=O)N[C@@H](CCC(N)=O)C(=O)N[C@H](C(N)=O)[C@@H](C)O [EU-A1872] | 2.62 | – | –
CCCCCCCCCCCCCCCC(=O)N[C@@H](CCC(=O)NCCCC[C@H](NC(=O)[C@H](CC(=O)O)NC(=O)[C@H](CO)NC(=O)[C@@H](NC(=O)[C@H](Cc1ccccc1)NC(=O)[C@@H](NC(=O)CNC(=O)[C@H](CCC(N)=O)NC(=O)[C@H](CO)NC(=O)[C@@H](N)Cc1c[nH]cn1)[C@@H](C)O)[C@@H](C)O)C(=O)N[C@@H](CO)C(=O)N[C@@H](CCC(=O)O)C(=O)N[C@@H](Cc1ccc(O)cc1)C(=O)N[C@@H](CC(C)C)C(=O)N[C@@H](CC(=O)O)C(=O)N[C@@H](CO)C(=O)N[C@@H](CCC(=O)O)C(=O)N[C@@H](CCCNC(=N)N)C(=O)N[C@@H](C)C(=O)N[C@@H](CCCNC(=N)N)C(=O)N[C@@H](CC(=O)O)C(=O)N[C@@H](Cc1ccccc1)C(=O)N[C@H](C(=O)N[C@@H](C)C(=O)N[C@@H](Cc1c[nH]c2ccccc12)C(=O)N[C@@H](CC(C)C)C(=O)N[C@@H](CCC(=O)O)C(=O)N[C@@H](C)C(=O)NCC(=O)NCC(=O)O)C(C)C)C(=O)O [cotadutide] | – | 5.4 | 39
